Assays:
[1] = system: 6-Hydroxydopamine-lesioned rats; experiment: 6-OHDA Rat Assay: potentiation of contraversive rotation induced by L-DOPA methyl ester; assay type: in vivo, Sprague-Dawley rats; conditions: po; L-DOPA methyl ester 10 mg/kg SC; total contraversive rotations over 6 hour vs L-DOPA only
Description: Adult male Sprague-Dawley rats were anesthetized with chloral hydrate and unilateral lesions of the nigrostriatal dopamine system were accomplished by infusion of 8 μg of 6-hydroxydopamine HBr (6-OHDA) into the right medial forebrain bundle. […] A minimum of 3 weeks after surgery, the rotational behavior induced by apomorphine HCL 50 μg/kg subcutaneously (SC) was assessed. […] Rotational behavior was measured using an automatic rotometer system (Rotorat Rotational Activity System, MED Associates, Georgia, Vt.). Anti-parkinsonian activity was assessed as the ability of the compound to potentiate the contraversive rotation induced by L-DOPA methyl ester, 10 mg/kg SC, over a 6 hour period. Experiments were conducted using a crossover paradigm where each rat received either a vehicle plus L-DOPA, or the test compound plus L-DOPA, in randomized order. Rats were tested at 7 day intervals. In experiments in which the compound was tested orally, rats were food deprived for 16 hours. Statistical analysis between treatment groups were performed using a paired t-test.

NR1A /2B = molecular target: T1, NR1A /2B (Rattus norvegicus, UniProt P35439+Q00960); experiment: Electrophysiological assay at NMDA receptor subunits NR1A/2B expressed in Xenopus oocytes; assay type: cell-based; conditions: rat clones in Xenopus oocytes, currents activated by glutamate (100 μM) and glycine (1-100 μM)
T1 construct: expressed in transfected cells; host or cells: Xenopus laevis oocytes (cRNA micro-injection)
T1 sequence (Q00960 27-1482, other chains not shown): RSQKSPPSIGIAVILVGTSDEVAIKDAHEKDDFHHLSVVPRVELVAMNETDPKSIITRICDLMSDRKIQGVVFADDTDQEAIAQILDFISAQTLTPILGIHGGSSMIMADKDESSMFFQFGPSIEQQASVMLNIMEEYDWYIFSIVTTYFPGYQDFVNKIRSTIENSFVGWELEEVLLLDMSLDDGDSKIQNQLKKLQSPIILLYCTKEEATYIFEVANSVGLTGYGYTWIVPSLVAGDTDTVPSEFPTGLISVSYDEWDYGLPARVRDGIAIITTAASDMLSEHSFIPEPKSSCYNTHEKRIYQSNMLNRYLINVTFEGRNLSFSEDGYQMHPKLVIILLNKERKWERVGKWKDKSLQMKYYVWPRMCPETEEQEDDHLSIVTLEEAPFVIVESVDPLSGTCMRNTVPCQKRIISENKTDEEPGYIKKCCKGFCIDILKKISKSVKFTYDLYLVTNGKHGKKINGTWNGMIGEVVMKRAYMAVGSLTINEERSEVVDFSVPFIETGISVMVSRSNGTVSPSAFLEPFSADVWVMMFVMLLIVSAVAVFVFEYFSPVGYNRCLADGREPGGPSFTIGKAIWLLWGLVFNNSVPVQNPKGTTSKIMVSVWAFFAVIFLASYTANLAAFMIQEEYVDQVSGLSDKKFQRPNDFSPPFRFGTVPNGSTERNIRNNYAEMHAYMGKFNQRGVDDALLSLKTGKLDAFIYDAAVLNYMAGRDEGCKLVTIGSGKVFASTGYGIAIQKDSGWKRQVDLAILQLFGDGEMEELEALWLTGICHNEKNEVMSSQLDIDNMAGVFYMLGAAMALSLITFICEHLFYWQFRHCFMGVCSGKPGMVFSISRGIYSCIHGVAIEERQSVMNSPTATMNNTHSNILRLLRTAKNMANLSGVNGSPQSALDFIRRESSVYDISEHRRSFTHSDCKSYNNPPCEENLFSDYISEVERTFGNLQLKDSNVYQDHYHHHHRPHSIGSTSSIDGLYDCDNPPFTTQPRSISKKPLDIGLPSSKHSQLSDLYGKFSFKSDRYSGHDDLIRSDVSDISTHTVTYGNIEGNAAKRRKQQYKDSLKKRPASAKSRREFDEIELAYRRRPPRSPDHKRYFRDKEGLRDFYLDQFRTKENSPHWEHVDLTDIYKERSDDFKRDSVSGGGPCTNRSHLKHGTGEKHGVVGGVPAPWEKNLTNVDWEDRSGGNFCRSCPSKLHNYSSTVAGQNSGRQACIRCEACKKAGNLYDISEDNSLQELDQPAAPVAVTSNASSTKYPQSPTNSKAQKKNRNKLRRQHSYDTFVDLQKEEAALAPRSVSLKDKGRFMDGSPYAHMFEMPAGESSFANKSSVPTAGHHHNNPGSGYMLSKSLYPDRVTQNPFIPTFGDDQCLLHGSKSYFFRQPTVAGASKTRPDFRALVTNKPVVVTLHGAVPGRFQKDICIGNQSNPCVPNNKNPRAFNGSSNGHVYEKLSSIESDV
From the text: (§1) Many of the properties of native NMDA receptors are seen in recombinant homomeric NR1 receptors expressed in Xenopus oocytes. These properties are altered by the NR2 subunits. Recombinant NMDA receptors expressed in Xenopus oocytes have been studied by voltage-clamp recording, as has developmental and regional expression of the mRNAs encoding NMDA receptor subunits. Electrophysiological assays were utilized to characterize the actions of compounds at NMDA receptors expressed in Xenopus oocytes.
(§2) Electrophysiological Assays at NMDA receptor subunits.
(§3) cDNA clones encoding the NR1A, NR2A, NR2B, and NR2C rat NMDA receptor subtypes were used. […] The clones were transformed into appropriate host bacteria and plasmid preparations were made with conventional DNA purification techniques. A sample of each clone was linearized by restriction enzyme digestion and cRNA was synthesized with T3 RNA polymerase. The cRNA was diluted to 400 ng/μl and stored in 1 μl aliquots at -80° C. until injection.
(§4) The Xenopus Oocyte Expression System
(§5) Follicle-enclosed oocytes were micro-injected with 1:1 mixtures of NR1A:NR2A, 2B or 2C; infecting 1-10 ng of RNA encoding each receptor subunit. NR1A encoding RNA was injected alone at ~20 ng. Oocytes were stored in Barth's medium containing (in mM):NaCl, 88; KCl, 1; CaCl2, 0.41; Ca(NO3)2, 0.33; MgSo4, 0.82 NaHCO3, 2.4; HEPES 5, pH 7.4, with 0.11 mg/ml gentamicin sulphate. While oocytes were still surrounded by enveloping ovarian tissues the Barth's medium was supplemented with 0.1% bovine serum.
(§6) Electrical recordings were made using a conventional two-electrode voltage clamp (Dagan TEV-200) over periods ranging between 3-21 days following injection. […] Drugs were applied by bath perfusion. Using oocytes expressing different subunit combinations of NMDA receptor, NMDA currents were activated by co-application of glutamate (100 μM) and glycine (1-100 μM). Inhibitory potency of the novel antagonists was assessed on responses elicited by fixed concentrations of glutamate and glycine, by measuring reductions in current induced by progressively increasing concentrations of antagonist. Concentration-inhibition curves were fit with equation 1.
(§7) in which Icontrol is the current evoked by agonists alone, pIC50 =-log IC50, IC50 is the concentration of antagonist that produces half maximal inhibition, and n is the slope factor. […] For incomplete curves analysis by fitting was unreliable and IC50 values were calculated by simple regression over linear portions of the curves (Origin: Microcal Software).

[2] = system: d-amphetamine-induced stimulation; conditions: injected into rat nucleus accumbens vs striatum; cited from earlier work
NR1A /2C = molecular target: T2, NR1A /2C (Rattus norvegicus, UniProt P35439+Q00961); experiment: Electrophysiological assay at NMDA receptor subunits NR1A/2C expressed in Xenopus oocytes; assay type: cell-based; conditions: rat clones in Xenopus oocytes, currents activated by glutamate (100 μM) and glycine (1-100 μM)
T2 construct: expressed in transfected cells; host or cells: Xenopus laevis oocytes (cRNA micro-injection)
T2 sequence (Q00961 20-1237, other chains not shown): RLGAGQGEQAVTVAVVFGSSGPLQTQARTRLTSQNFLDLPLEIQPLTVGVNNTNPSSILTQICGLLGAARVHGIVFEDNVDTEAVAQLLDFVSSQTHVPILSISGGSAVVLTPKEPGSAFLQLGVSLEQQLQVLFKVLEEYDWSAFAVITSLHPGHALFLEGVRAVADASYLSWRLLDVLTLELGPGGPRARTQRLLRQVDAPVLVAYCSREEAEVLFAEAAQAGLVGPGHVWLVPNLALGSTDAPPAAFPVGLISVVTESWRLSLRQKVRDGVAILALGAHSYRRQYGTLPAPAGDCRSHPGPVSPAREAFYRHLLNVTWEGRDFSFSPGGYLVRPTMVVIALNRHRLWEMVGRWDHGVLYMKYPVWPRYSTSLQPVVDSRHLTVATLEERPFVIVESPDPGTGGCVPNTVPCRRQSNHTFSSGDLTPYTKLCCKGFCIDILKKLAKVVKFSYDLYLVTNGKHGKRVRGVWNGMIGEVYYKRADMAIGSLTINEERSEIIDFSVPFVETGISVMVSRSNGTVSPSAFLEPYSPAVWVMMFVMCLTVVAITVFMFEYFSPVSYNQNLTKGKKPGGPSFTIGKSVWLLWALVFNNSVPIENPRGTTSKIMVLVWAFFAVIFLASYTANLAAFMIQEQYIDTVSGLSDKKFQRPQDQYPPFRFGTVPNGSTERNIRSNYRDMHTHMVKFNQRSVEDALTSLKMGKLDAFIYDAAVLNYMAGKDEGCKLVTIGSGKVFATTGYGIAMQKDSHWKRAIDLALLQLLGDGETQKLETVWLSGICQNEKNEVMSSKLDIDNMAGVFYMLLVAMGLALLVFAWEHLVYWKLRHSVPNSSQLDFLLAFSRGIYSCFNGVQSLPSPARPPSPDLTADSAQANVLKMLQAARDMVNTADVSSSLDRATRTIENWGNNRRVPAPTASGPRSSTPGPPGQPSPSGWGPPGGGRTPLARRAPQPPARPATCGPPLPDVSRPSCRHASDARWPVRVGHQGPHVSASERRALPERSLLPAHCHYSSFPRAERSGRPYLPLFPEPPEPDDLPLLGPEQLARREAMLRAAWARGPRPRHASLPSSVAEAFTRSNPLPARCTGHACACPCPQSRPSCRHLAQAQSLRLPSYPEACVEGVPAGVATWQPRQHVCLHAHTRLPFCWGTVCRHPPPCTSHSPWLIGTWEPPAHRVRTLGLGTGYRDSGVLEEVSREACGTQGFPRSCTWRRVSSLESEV
From the text: as §1, §2, §3, §4, §5, §6, §7

NRIA /2A = molecular target: T3, NRIA /2A (Rattus norvegicus, UniProt P35439+Q00959); experiment: Electrophysiological assay at NMDA receptor subunits NR1A/2A expressed in Xenopus oocytes; assay type: cell-based; conditions: rat clones in Xenopus oocytes, currents activated by glutamate (100 μM) and glycine (1-100 μM)
T3 construct: expressed in transfected cells; host or cells: Xenopus laevis oocytes (cRNA micro-injection)
T3 sequence (Q00959 23-1464, other chains not shown): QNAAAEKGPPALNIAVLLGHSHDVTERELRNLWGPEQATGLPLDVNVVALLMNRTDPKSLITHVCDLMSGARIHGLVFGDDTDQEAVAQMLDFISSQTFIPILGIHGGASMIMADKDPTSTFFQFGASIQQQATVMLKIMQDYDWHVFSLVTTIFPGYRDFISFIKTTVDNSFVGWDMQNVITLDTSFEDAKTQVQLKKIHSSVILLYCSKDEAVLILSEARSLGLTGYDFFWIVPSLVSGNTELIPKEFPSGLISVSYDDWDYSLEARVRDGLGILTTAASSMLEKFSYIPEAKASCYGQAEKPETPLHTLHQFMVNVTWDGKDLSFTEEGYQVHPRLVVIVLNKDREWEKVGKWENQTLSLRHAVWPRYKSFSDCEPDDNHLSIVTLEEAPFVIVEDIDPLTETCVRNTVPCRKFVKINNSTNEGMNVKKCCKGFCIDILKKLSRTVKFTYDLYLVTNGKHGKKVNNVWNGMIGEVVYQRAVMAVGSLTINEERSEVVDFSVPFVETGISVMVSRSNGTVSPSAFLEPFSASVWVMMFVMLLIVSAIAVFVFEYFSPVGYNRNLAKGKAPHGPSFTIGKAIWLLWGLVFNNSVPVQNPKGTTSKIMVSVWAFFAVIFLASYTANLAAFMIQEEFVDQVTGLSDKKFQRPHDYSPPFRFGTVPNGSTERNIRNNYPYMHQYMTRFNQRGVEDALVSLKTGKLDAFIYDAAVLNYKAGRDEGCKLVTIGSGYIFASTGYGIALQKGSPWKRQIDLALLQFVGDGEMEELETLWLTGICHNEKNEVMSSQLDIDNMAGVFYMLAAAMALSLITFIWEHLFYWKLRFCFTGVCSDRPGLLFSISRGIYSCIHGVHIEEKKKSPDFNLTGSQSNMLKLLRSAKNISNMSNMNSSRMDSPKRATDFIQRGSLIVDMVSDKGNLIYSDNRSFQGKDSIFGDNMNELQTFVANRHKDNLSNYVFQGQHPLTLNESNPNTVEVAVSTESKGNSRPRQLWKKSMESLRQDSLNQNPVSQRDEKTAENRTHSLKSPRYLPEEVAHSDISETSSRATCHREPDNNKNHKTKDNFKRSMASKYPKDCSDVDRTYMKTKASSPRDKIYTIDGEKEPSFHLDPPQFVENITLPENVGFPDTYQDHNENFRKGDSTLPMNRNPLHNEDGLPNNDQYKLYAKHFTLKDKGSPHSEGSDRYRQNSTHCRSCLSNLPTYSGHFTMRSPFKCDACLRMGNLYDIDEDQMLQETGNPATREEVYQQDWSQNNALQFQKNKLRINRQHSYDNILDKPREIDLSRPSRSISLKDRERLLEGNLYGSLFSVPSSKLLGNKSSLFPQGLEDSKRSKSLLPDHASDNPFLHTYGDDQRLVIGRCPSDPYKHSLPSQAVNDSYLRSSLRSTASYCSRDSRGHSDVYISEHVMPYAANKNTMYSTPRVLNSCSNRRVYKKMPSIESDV
From the text: as §1, §2, §3, §4, §5, §6, §7

[3] = at plasma levels leading to NMDA receptor antagonism; cited from earlier work

Row | SMILES | IC50 (NR1A /2B) [µM] | IC50 (NR1A /2C) [µM] | IC50 (NRIA /2A) [µM] | 6-OHDA rat MED (minimum effective dose) [1] [mg/kg] | antagonism of d-amphetamine-induced stimulation [2] | antiparkinsonian-like activity [3]
1 | O=c1[nH]c2ccc([S+]([O-])CCN3CCC(Cc4ccc(F)cc4)CC3)cc2o1 (single isomer, unassigned; (+)) [Example 19, (+)-6-{2-[4-(4-fluorobenzyl)piperidine-1-yl]ethanesulfinyl}-3H-benzooxazol-2-one] | 0.03 |  |  | 1 |  | 
2 | O=c1[nH]c2ccc([S+]([O-])CCN3CCC(Cc4ccc(F)cc4)CC3)cc2o1 (single isomer, unassigned; (-)) [Example 20, (-)-6-{2-[4,(4-fluorobenzyl)piperidin-1-yl]ethanesulfinyl}-3H-benzooxazol-2-one] | 0.03 |  |  | 30 |  | 
3 | O=C(O)c1cc(O)c2c(Cl)cc(Cl)cc2n1 [5,7-dichlorokynurenic acid] |  |  |  |  | selectively antagonize d-amphetamine-induced stimulation when injected into rat nucleus accumbens but not in striatum | 
4 | N[C@@H]1CCN(O)C1=O [(+) HA-966] |  |  |  |  | selectively antagonize d-amphetamine-induced stimulation when injected into rat nucleus accumbens but not in striatum | 
5 | O=c1[nH]c2ccc([S+]([O-])CCN3CCC(Cc4ccc(F)cc4)CC3)cc2o1 (stereo not shown) [Example 1, 6-[2-[4-(4-Fluoro-benzyl)-piperidin-1-yl]-ethanesulfinyl]-3H-benzooxazol-2-one] | 0.03 | 190 | 105 | 1 |  | 
6 | O=c1[nH]c2ccc([S+]([O-])CCN3CCC(Cc4ccc(Cl)cc4)CC3)cc2o1 (stereo not shown) [Example 2, 6-{2-[4-(4-chloro-benzyl)-piperidin-1-yl]-ethanesulfinyl}-3H-benzooxazol-2-one] | 0.02 | 200 | > 300 | 3 |  | 
7 | Cc1ccc(CC2CCN(CC[S+]([O-])c3ccc4[nH]c(=O)oc4c3)CC2)cc1 (stereo not shown) [Example 3, 6-{2-[4-(4-methyl-benzyl)-piperidin-1-yl]-ethanesulfinyl}-3H-benzooxazol-2-one] | 0.03 |  | 100 | 3 |  | 
8 | O=c1[nH]c2ccc([S+]([O-])CCN3CCC(Cc4ccccc4)CC3)cc2o1 (stereo not shown) [Example 4, 6-[2-(4-Benzyl-piperidin-1-yl)-ethanesulfinyl]-3H-benzooxazol-2-one] | 0.03 | > 300 | > 300 | 3 |  | 
9 | COc1ccc(CC2CCN(CC[S+]([O-])c3ccc4[nH]c(=O)oc4c3)CC2)cc1 (stereo not shown) [Example 5, 6-{2-[4-(4-methoxybenzyl)-piperidin-1-yl]-ethanesulfinyl}-3H-benzooxazol-2-one] | 0.1 | 150 | 55 | > 10 |  | 
10 | O=c1[nH]c2ccc([S+]([O-])CCN3CCC(Cc4ccc(Cl)c(Cl)c4)CC3)cc2o1 (stereo not shown) [Example 6, 6-{2-[4-(3,4-dichlorobenzyl)-piperidin-1-yl]-ethanesulfinyl}-3H-benzooxazol-2-one] | 0.1 | 80 | 70 | > 10 |  | 
11 | O=c1[nH]c2ccc([S+]([O-])CCN3CCC(Cc4ccccc4F)CC3)cc2o1 (stereo not shown) [Example 7, 6-{2-[4-(2-fluorobenzyl)-piperidin-1-yl]-ethanesulfinyl}-3H-benzooxazol-2-one] | 0.09 | 60 | 55 | 10 |  | 
12 | O=c1[nH]c2ccc([S+]([O-])CCN3CCC(O)(Cc4ccccc4)CC3)cc2o1 (stereo not shown) [Example 8, 6-[2-(4-benzyl-4-hydroxypiperidin-1-yl)-ethanesulfinyl]-3H-benzooxazol-2-one] | 1.1 | 230 | 40 |  |  | 
13 | O=c1[nH]c2ccc([S+]([O-])CCN3CCC(O)(Cc4ccc(F)cc4)CC3)cc2o1 (stereo not shown) [Example 9, 6-{2-[4-(4-fluorobenzyl)-4-hydroxy-piperidin-1-yl]-ethanesulfinyl}-3H-benzooxazol-2-one] | 0.9 | 200 | 50 | > 10 |  | 
14 | O=C(c1ccccc1)C1CCN(CC[S+]([O-])c2ccc3[nH]c(=O)oc3c2)CC1 (stereo not shown) [Example 10, 6-[2-(4-benzoylpiperidin-1-yl)-ethanesulfinyl]-3H-benzooxazol-2-one] | 0.34 | 140 | 70 |  |  | 
15 | NC12CC3CC(CC(C3)C1)C2 [amantadine] |  |  |  |  |  | showed antiparkinsonian-like activity in animals
16 | CC12CC3CC(C)(C1)CC(N)(C3)C2 [memantine] |  |  |  |  |  | showed antiparkinsonian-like activity in animals

Second part, led by results:

Row | IC50 (NR1A /2B) [µM] | IC50 (NR1A /2C) [µM] | IC50 (NRIA /2A) [µM] | SMILES | 6-OHDA rat MED (minimum effective dose) [1] [mg/kg] | antagonism of d-amphetamine-induced stimulation [2] | antiparkinsonian-like activity [3]
17 | 0.05 | 140 | 40 | O=c1[nH]c2ccc([S+]([O-])CCN3CCC(Cc4cccc(F)c4F)CC3)cc2o1 (stereo not shown) [Example 11, 6-{2-[4-(2,3-difluorobenzyl)-piperidin-1-yl]-ethanesulfinyl}-3H-benzooxazol-2-one] | 10 |  | 
18 | 0.01 | 130 | 30 | O=c1[nH]c2ccc([S+]([O-])CCN3CCC(Cc4ccc(F)cc4F)CC3)cc2o1 (stereo not shown) [Example 12, 6-{2-[4-(2,4-difluorobenzyl)-piperidin-1-yl]-ethanesulfinyl}-3H-benzooxazol-2-one] | 10 |  | 
19 | 0.04 | 150 | 35 | O=c1[nH]c2ccc([S+]([O-])CCN3CCC(Cc4ccc(C(F)(F)F)cc4)CC3)cc2o1 (stereo not shown) [Example 13] | 10 |  | 
20 | 0.04 | 160 | 55 | O=c1[nH]c2ccc([S+]([O-])CCN3CCC(Cc4c(F)cccc4F)CC3)cc2o1 (stereo not shown) [Example 14, 6-{2-4[-(2,6-difluorobenzyl)-piperidin-1-yl]-ethanesulfinyl}-3H-benzooxazol-2-one] | > 10 |  | 
21 | 0.04 | 150 | 90 | O=c1[nH]c2ccc([S+]([O-])CCN3CCC(Cc4ccc(Cl)cc4Cl)CC3)cc2o1 (stereo not shown) [Example 15, 6-{2-[4-(2,4-dichlorobenzyl)-piperidin-1-yl]-ethanesulfinyl}-3H-benzooxazol-2-one] | 10 |  | 
22 | 10 | > 300 | > 300 | CC(=O)Nc1ccc(CC2CCN(CC[S+]([O-])c3ccc4[nH]c(=O)oc4c3)CC2)cc1 (stereo not shown) [Example 16, N-(4-{1-[2-(2-oxo-2,3-dihydrobenzooxazol-6-sulfinyl)ethyl]piperidin-4-ylmethyl}phenyl)acetamide] |  |  | 
23 | 0.16 | > 300 | 40 | O=c1[nH]c2cc(Cl)c([S+]([O-])CCN3CCC(Cc4ccccc4)CC3)cc2o1 (stereo not shown) [Example 17, 6-[2-(4-benzylpiperidin-1-yl)ethanesulfinyl]-5-chloro-3H-benzooxazol-2-one] | > 10 |  | 
24 | 0.11 | > 300 | 35 | O=c1[nH]c2cc(Cl)c([S+]([O-])CCN3CCC(Cc4ccc(F)cc4)CC3)cc2o1 (stereo not shown) [Example 18, 5-Chloro-6-{2-[4-(4-fluorobenzyl)piperidin-1-yl]ethanesulfinyl}-3H-benzooxazol-2-one] | > 10 |  | 
